Measurements taken from patent US5321030A, “Creatine analogs having antiviral activity” (priority 1991, dated 1994).
Converted amounts (≈) assume the structure as drawn. Read-outs that look alike come from different tables or passages of the source.

Assays:
[1] = test system: herpes simplex virus type 2 (HSV-2), strain E194; experiment: HSV-2 vaginitis in mice; format: in vivo, Swiss Webster female mice; settings: for Mean Day to Death: virus infected
in vivo = format: in vivo; settings: for survival: mouse, in vivo, read-out: Survivors/Total (%); for Weight Change: uninfected, combined animal weights day 0 to day 15
[2] = test system: Pseudorabies virus, Aujeszky strain; format: cell-based; settings: similar assay
[3] = test system: Herpes Simplex Virus, Type 1, strain BW10168 (TK-); experiment: microbe, parasite or virus in culture; format: cell-based; parameters: TI50 (CD50 ÷ ED50): unit not given beside the values; settings: for Average CPE: virus controls 4.0
in vitro = settings: monkey, vero cells
HSV-1 = experiment: Cytopathic effect (CPE) assay, HSV-1
HSV-2 = experiment: Cytopathic effect (CPE) assay, HSV-2; settings: Human alphaherpesvirus 2, Vero, read-out: concentration required to inhibit cytopathogenicity by 60% or 70%

In the case of `Nc1nc2c(ncn2COCCO)c(=O)[nH]1` [acyclovir], the “average lesion score” value ([1]; 25 mg/kg/day gavage, Grand Ave. (Days 3-14)) is reported as 1.5 ± 0.6, the “average lesion score” value ([1]; 25 mg/kg/day gavage, day 3) is reported as 0.1 ± 0.2 and the “average lesion score” value ([1]; 25 mg/kg/day gavage, day 5) is reported as 1.3 ± 1.5. The “average lesion score” value ([1]; 25 mg/kg/day gavage, day 6) was 1.3 ± 1.3, the “average lesion score” value ([1]; 25 mg/kg/day gavage, day 7) was 1.7 ± 1.6 and the “average lesion score” value ([1]; 25 mg/kg/day gavage, day 8) was 2.1 ± 1.5. For the same compound, the “average lesion score” value ([1]; 25 mg/kg/day gavage, day 9) was 2.1 ± 1.4, the “average lesion score” value ([1]; 25 mg/kg/day gavage, day 10) was 2.0 ± 1.2 and the “average lesion score” value ([1]; 25 mg/kg/day gavage, day 11) was 1.9 ± 1.3. The “average lesion score” value ([1]; 25 mg/kg/day gavage, day 12) was 1.9 ± 1.4, the “average lesion score” value ([1]; 25 mg/kg/day gavage, day 13) was 1.8 ± 1.5 and the “average lesion score” value ([1]; 25 mg/kg/day gavage, day 14) was 1.8 ± 1.5. The “average lesion score” value ([1]; 50 mg/kg/day gavage, Grand Ave. (Days 3-14)) was 0.8 ± 0.3, the “average lesion score” value ([1]; 50 mg/kg/day gavage, day 3) was 0.0 ± 0.0 and the “average lesion score” value ([1]; 50 mg/kg/day gavage, day 4) was 0.2 ± 0.3. For the same compound, the “average lesion score” value ([1]; 50 mg/kg/day gavage, day 5) was 1.0 ± 1.8, the “average lesion score” value ([1]; 50 mg/kg/day gavage, day 6) was 0.5 ± 0.7 and the “average lesion score” value ([1]; 50 mg/kg/day gavage, day 7) was 0.8 ± 1.2. The “average lesion score” value ([1]; 50 mg/kg/day gavage, day 8) was 0.8 ± 0.9, the “average lesion score” value ([1]; 50 mg/kg/day gavage, day 10) was 0.9 ± 1.2 and the “average lesion score” value ([1]; 50 mg/kg/day gavage, day 11) was 0.9 ± 1.2. For the same compound, the “average lesion score” value ([1]; 50 mg/kg/day gavage, day 12) was 0.9 ± 1.2, the “average lesion score” value ([1]; 50 mg/kg/day gavage, day 14) was 1.0 ± 1.3 and the “average lesion score” value ([1]; 100 mg/kg/day gavage, Grand Ave. (Days 3-14)) was 0.7 ± 0.4. The “average lesion score” value ([1]; 100 mg/kg/day gavage, day 3) was 0.1 ± 0.2, the “average lesion score” value ([1]; 100 mg/kg/day gavage, day 4) was 0.2 ± 0.3 and the “average lesion score” value ([1]; 100 mg/kg/day gavage, day 5) was 0.4 ± 0.4. For the same compound, the “average lesion score” value ([1]; 100 mg/kg/day gavage, day 6) was 0.5 ± 0.5, the “average lesion score” value ([1]; 100 mg/kg/day gavage, day 7) was 0.6 ± 0.7 and the “average lesion score” value ([1]; 100 mg/kg/day gavage, day 8) was 0.8 ± 0.9. For the same compound, the “average lesion score” value ([1]; 100 mg/kg/day gavage, day 9) was 0.9 ± 0.9, the “average lesion score” value ([1]; 100 mg/kg/day gavage, day 10) was 1.4 ± 1.2 and the “average lesion score” value ([1]; 100 mg/kg/day gavage, day 11) was 1.0 ± 1.3. For the same compound, the “average lesion score” value ([1]; 100 mg/kg/day gavage, day 12) was 1.1 ± 1.3, the “average lesion score” value ([1]; 100 mg/kg/day gavage, day 13) was 0.8 ± 0.9 and the “average lesion score” value ([1]; 100 mg/kg/day gavage, day 14) was 0.7 ± 0.9. The “average lesion score” value ([1]; 200 mg/kg/day gavage, Grand Ave. (Days 3-14)) was 0.6 ± 0.3, the “average lesion score” value ([1]; 200 mg/kg/day gavage, day 3) was 0.1 ± 0.2 and the “average lesion score” value ([1]; 200 mg/kg/day gavage, day 4) was 0.1 ± 0.2. For the same compound, the “average lesion score” value ([1]; 200 mg/kg/day gavage, day 5) was 0.4 ± 0.5, the “average lesion score” value ([1]; 200 mg/kg/day gavage, day 6) was 0.2 ± 0.3 and the “average lesion score” value ([1]; 200 mg/kg/day gavage, day 7) was 0.4 ± 0.5. For the same compound, the “average lesion score” value ([1]; 200 mg/kg/day gavage, day 8) was 0.7 ± 0.6, the “average lesion score” value ([1]; 200 mg/kg/day gavage, day 9) was 0.9 ± 0.7 and the “average lesion score” value ([1]; 200 mg/kg/day gavage, day 10) was 1.0 ± 0.6. The “average lesion score” value ([1]; 200 mg/kg/day gavage, day 11) was 0.7 ± 0.7, the “average lesion score” value ([1]; 200 mg/kg/day gavage, day 12) was 0.7 ± 0.7 and the “average lesion score” value ([1]; 200 mg/kg/day gavage, day 13) was 0.8 ± 0.7. For the same compound, the “average lesion score” value ([1]; 200 mg/kg/day gavage, day 14) was 0.7 ± 0.7, the “activity in vaginitis model” value ([1]; 5% cream topical) was “very effective” and the average lesion score ([1]; acyclovir 5% cream topical, Grand Ave. (Days 3-14)) was 0.3 ± 0.2. It also gave an average lesion score ([1]; acyclovir 5% cream topical, day 3) of 0.1 ± 0.1, an average lesion score ([1]; acyclovir 5% cream topical, day 4) of 0.1 ± 0.1 and an average lesion score ([1]; acyclovir 5% cream topical, day 5) of 0.1 ± 0.2. It also gave an average lesion score ([1]; acyclovir 5% cream topical, day 6) of 0.2 ± 0.2, an average lesion score ([1]; acyclovir 5% cream topical, day 7) of 0.2 ± 0.2 and an average lesion score ([1]; acyclovir 5% cream topical, day 8) of 0.2 ± 0.3. It also gave an average lesion score ([1]; acyclovir 5% cream topical, day 9) of 0.2 ± 0.2, an average lesion score ([1]; acyclovir 5% cream topical, day 10) of 0.6 ± 0.8 and an average lesion score ([1]; acyclovir 5% cream topical, day 11) of 0.5 ± 0.7. It also gave an average lesion score ([1]; acyclovir 5% cream topical, day 12) of 0.3 ± 0.6, an average lesion score ([1]; acyclovir 5% cream topical, day 13) of 0.3 ± 0.6 and an average lesion score ([1]; acyclovir 5% cream topical, day 14) of 0.3 ± 0.6. The “Mean Day to Death” value ([1]; ACV 25 mg/kg) was 10.4 ± 2.5, the “Mean Day to Death” value ([1]; ACV 50 mg/kg) was 11.3 ± 2.1 and the “Mean Day to Death” value ([1]; ACV 100 mg/kg) was 12.0 ± 1.4. The “Mean Day to Death” value ([1]; ACV 200 mg/kg) was 11.3 ± 2.5, the survival (in vivo; 25 mg/kg) was 100% and the survival (in vivo; 50 mg/kg) was 100%. The survival (in vivo; 100 mg/kg) was 100%, the survival (in vivo; 200 mg/kg) was 100% and the “Weight Change” value (in vivo; ACV 25 mg/kg) was 2.8 g. For the same compound, the “Weight Change” value (in vivo; ACV 50 mg/kg) was 4.0 g, the “Weight Change” value (in vivo; ACV 100 mg/kg) was 3.5 g and the “Weight Change” value (in vivo; ACV 200 mg/kg) was 4.8 g. For the same compound, the “effect against Pseudorabies virus” value [2] was “ineffective”, the “Average CPE” value ([3]; Acyclovir 1.0 μg/ml) was 4.0 and the “Average CPE” value ([3]; Acyclovir 3.2 μg/ml) was 3.2. The “Average CPE” value ([3]; Acyclovir 10 μg/ml) was 1.5, the “Average CPE” value ([3]; Acyclovir 32 μg/ml) was 0.3 and the “Average CPE” value ([3]; Acyclovir 100 μg/ml) was 0.5. For the same compound, the “Average CPE” value ([3]; Acyclovir 316 μg/ml) was 0.2, the “Average CPE” value ([3]; Acyclovir 1000 μg/ml) was 0 and the EC50 ([3]; Human alphaherpesvirus 1, Vero, read-out: ED50, Vero cells, Table 8) was 10.6 µg/mL (≈ 47.1 µM). The “TI50 (CD50 ÷ ED50)” value ([3]; Vero cells, Table 8) was greater than 94, the CC50 (in vitro) was greater than 1000 µg/mL and the EC65 (HSV-1; Human alphaherpesvirus 1, Vero, read-out: dose required to inhibit cytopathogenicity by 65%) was 0.97 µM. For the same compound, the EC50 (HSV-1; Human alphaherpesvirus 1, read-out: in vitro ED50) was 7 µM and the EC (60 or 70) (HSV-2) was 1.95 µM.
